Results from PMC11831560, “Development of the Pyrido[2,3-d]pyrimidin-7(8H)-one Scaffold toward Potent and Selective NUAK1 Inhibitors” (ACS Medicinal Chemistry Letters, 2025).

Experiments:
[1] = Microsomal stability, human; assay type: in vitro ADME; details: human liver microsomes; read-out: HLM t1/2
Procedure: All single point assay determinations carried out in duplicate.
ADMET and PK experimental methods
Microsomal stability: analysis was performed by Cyprotex Discovery. […]

CDK4/D1 = tested on: CDK4/D1; design: method as in Reddy et al. 28; details: ref Reddy et al. 28; cited from earlier work
CDK6/D1 = tested on: CDK6/D1; design: method as in Reddy et al. 28; details: ref Reddy et al. 28; cited from earlier work
[2] = design: method as in PMID 24568969; details: mice, I.V. dosing 5 mgkg^–1; cited from earlier work
IKKb = IKKb (Homo sapiens, UniProt O14920); test: Kinase panel radiometric filter binding (33P-ATP); assay type: biochemical; design: dose or concentration left out as unconfirmed
Sequence of IKKb (O14920 whole entry): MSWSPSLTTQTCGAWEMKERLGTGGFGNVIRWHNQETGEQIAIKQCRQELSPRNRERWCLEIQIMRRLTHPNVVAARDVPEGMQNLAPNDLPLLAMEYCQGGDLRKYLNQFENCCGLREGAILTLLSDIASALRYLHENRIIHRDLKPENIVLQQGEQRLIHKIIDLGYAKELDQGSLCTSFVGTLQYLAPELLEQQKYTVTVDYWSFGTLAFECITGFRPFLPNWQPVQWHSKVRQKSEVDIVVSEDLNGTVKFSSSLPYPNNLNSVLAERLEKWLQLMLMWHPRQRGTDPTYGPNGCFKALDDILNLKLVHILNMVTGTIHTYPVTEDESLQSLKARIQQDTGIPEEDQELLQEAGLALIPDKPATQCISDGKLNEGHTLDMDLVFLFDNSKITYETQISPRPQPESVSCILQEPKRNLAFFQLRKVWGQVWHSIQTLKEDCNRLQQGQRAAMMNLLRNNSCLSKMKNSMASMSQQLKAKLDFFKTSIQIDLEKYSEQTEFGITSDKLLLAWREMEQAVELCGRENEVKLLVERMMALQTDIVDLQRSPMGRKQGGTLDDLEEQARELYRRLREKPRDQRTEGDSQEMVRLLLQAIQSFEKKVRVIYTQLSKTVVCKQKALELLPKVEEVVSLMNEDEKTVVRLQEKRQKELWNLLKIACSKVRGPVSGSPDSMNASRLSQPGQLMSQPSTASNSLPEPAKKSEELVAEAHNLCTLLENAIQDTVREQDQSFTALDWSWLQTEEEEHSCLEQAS
In short: (§1)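 Compounds were screened at 1 µM against a 140-kinase panel in a radiometric filter-binding assay with 33P-ATP, and residual kinase activity was recorded with s.d. Where activity fell below 20%, full concentration-response curves gave pIC50 values.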

BRSK2 = BRSK2 (Homo sapiens, UniProt Q8IWQ3); test: Kinase panel radiometric filter binding (33P-ATP); assay type: biochemical; design: dose or concentration left out as unconfirmed
In short: as §1

EPH-B1 = EPH-B1 (Homo sapiens, UniProt P54762); test: Kinase panel radiometric filter binding (33P-ATP); assay type: biochemical; design: dose or concentration left out as unconfirmed
In short: as §1

HIPK1 = HIPK1 (Homo sapiens, UniProt Q86Z02); test: Kinase panel radiometric filter binding (33P-ATP); assay type: biochemical; design: dose or concentration left out as unconfirmed
Sequence of HIPK1 (Q86Z02 whole entry): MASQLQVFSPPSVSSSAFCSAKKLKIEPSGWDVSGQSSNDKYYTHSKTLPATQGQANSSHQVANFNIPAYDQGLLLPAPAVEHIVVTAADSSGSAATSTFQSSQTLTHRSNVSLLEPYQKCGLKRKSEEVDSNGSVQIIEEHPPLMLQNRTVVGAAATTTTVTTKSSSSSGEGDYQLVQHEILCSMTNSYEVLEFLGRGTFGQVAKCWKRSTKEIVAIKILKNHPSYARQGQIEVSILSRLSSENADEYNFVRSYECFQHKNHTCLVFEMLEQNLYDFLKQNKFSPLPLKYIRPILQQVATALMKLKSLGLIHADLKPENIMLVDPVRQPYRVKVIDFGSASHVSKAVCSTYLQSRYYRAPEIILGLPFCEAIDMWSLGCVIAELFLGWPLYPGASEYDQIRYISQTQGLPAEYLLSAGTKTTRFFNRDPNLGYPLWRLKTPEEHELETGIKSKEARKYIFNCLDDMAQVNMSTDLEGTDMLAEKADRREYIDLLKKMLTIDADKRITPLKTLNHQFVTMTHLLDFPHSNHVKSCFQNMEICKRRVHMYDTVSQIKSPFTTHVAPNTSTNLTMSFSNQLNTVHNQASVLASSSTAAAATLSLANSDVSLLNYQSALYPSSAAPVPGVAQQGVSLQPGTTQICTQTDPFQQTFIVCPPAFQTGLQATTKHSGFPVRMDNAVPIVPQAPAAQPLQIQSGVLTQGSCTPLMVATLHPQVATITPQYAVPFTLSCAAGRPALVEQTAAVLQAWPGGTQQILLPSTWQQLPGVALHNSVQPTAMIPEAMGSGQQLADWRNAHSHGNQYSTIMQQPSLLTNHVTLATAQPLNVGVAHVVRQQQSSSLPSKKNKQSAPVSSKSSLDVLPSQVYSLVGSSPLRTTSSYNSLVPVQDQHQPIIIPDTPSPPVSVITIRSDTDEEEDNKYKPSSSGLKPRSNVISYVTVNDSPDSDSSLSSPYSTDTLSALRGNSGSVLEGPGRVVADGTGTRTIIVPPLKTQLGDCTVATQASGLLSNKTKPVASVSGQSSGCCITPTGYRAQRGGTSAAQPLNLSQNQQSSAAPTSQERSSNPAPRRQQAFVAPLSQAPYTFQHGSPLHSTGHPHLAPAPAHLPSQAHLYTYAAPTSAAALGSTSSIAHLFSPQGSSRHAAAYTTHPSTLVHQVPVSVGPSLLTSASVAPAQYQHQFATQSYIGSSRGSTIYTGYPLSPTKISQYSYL
In short: as §1

ERK1 = ERK1 (Homo sapiens, UniProt P27361); test: Kinase panel radiometric filter binding (33P-ATP); assay type: biochemical; design: dose or concentration left out as unconfirmed
Sequence of ERK1 (P27361 whole entry): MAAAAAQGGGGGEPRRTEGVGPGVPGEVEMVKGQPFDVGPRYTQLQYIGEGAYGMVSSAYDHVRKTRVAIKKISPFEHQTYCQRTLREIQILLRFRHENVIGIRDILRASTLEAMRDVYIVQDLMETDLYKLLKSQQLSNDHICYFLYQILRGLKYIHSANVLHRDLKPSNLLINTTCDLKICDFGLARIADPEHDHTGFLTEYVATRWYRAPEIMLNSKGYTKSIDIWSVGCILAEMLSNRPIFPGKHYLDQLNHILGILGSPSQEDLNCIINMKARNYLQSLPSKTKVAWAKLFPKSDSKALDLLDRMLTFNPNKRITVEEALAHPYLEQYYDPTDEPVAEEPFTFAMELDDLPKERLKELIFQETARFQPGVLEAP
In short: as §1

DYRK1A = DYRK1A (Homo sapiens, UniProt Q13627); test: Kinase panel radiometric filter binding (33P-ATP); assay type: biochemical; design: dose or concentration left out as unconfirmed
In short: as §1

MLK3 = MLK3 (Homo sapiens, UniProt Q16584); test: Kinase panel radiometric filter binding (33P-ATP); assay type: biochemical; design: dose or concentration left out as unconfirmed
In short: as §1

PKA = PKA (Homo sapiens, UniProt P17612); test: Kinase panel radiometric filter binding (33P-ATP); assay type: biochemical; design: dose or concentration left out as unconfirmed
In short: as §1

TGFBR1 = TGFBR1 (Homo sapiens, UniProt P36897); test: Kinase panel radiometric filter binding (33P-ATP); assay type: biochemical; design: dose or concentration left out as unconfirmed
Sequence of TGFBR1 (P36897 34-503): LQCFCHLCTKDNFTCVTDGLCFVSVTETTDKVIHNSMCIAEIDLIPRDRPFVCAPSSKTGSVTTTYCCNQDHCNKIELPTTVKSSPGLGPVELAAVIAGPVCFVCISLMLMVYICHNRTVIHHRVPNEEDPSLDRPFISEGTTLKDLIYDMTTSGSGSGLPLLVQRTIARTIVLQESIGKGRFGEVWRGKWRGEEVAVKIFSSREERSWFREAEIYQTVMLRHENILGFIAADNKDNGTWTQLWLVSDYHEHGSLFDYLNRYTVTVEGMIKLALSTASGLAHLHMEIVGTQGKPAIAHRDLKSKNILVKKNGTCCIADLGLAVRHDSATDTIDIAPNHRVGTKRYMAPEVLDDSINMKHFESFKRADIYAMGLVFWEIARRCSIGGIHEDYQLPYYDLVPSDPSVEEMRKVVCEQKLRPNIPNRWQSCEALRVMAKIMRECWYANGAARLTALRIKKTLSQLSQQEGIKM
In short: as §1

PDK1 = PDK1 (Homo sapiens, UniProt O15530); test: Kinase panel radiometric filter binding (33P-ATP); assay type: biochemical; design: dose or concentration left out as unconfirmed
Sequence of PDK1 (O15530 whole entry): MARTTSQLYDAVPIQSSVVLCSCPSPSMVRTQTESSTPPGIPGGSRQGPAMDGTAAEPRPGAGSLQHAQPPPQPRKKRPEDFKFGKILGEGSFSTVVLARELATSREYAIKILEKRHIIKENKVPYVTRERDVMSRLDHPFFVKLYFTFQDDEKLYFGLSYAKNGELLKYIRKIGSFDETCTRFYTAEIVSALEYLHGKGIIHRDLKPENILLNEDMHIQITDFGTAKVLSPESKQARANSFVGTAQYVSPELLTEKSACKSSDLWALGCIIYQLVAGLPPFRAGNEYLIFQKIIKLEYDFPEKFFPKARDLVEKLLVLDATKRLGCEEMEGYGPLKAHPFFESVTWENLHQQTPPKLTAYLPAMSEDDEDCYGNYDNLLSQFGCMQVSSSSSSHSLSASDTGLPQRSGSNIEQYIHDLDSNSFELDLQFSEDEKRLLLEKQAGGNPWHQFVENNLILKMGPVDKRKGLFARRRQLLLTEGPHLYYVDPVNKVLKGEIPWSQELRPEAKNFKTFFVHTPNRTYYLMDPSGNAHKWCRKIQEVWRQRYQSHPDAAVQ
In short: as §1

TBK1 = TBK1 (Homo sapiens, UniProt Q9UHD2); test: Kinase panel radiometric filter binding (33P-ATP); assay type: biochemical
Procedure: (§2) Table S4: AMPKA kinase activity data (ADP-Glo assay)
(§3) Compound pIC50 (Fold selectivity
(§4) Table S5. Kinase selectivity screening for 9 and 24 at 1 µM against a general kinase panel of 140 targets
(§5) in radiometric filter binding assay using 33P-γ−ATP at the MRC PPU International Centre for Kinase
(§6) Profiling, University of Dundee. pIC50 values were determined for compounds with <20% activity
(§7) Kinase activity s.d. pIC50 activity s.d. pIC50

TLK1 = TLK1 (Homo sapiens, UniProt Q9UKI8); test: Kinase panel radiometric filter binding (33P-ATP); assay type: biochemical
Sequence of TLK1 (Q9UKI8 whole entry): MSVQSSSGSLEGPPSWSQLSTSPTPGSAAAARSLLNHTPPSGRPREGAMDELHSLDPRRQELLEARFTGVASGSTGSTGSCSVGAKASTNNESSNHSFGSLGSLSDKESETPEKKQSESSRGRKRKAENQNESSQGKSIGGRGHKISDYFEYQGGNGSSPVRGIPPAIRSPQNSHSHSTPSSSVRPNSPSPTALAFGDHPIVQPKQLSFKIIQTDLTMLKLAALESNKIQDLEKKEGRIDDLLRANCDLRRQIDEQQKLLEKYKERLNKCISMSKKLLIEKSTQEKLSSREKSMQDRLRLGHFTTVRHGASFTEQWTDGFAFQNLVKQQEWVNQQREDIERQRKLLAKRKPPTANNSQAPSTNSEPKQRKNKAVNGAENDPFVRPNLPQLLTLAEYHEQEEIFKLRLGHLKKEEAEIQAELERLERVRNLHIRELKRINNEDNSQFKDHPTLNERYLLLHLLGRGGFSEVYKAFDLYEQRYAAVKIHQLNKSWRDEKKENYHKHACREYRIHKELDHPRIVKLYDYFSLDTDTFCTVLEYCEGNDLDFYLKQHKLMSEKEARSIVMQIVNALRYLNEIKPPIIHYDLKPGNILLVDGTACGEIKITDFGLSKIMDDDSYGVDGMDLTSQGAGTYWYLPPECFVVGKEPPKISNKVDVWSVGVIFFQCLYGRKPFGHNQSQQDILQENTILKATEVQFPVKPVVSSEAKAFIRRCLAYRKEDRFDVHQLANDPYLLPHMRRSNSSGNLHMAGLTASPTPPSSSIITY
Procedure: as §2, §3, §4, §5, §6, §7

p38g MAPK = p38g MAPK (Homo sapiens, UniProt P53778); test: Kinase panel radiometric filter binding (33P-ATP); assay type: biochemical
Sequence of p38g MAPK (P53778 whole entry): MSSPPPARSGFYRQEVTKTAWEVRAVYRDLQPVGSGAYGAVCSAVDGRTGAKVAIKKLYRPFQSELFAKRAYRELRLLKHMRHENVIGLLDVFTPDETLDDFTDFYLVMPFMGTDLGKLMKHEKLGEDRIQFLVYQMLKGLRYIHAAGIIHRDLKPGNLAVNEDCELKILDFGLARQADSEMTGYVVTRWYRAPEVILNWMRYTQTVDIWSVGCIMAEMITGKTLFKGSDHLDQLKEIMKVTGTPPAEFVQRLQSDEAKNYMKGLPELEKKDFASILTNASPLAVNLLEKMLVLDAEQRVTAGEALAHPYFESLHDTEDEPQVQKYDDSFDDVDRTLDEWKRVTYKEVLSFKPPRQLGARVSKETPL
Procedure: as §2, §3, §4, §5, §6, §7

NUAK1 = biological target: T1, NUAK1 (Homo sapiens, UniProt O60285); test: Kinase panel radiometric filter binding (33P-ATP); assay type: biochemical; design: purchased MRC PPU; dose or concentration left out as unconfirmed
T1 sequence (O60285 1-661): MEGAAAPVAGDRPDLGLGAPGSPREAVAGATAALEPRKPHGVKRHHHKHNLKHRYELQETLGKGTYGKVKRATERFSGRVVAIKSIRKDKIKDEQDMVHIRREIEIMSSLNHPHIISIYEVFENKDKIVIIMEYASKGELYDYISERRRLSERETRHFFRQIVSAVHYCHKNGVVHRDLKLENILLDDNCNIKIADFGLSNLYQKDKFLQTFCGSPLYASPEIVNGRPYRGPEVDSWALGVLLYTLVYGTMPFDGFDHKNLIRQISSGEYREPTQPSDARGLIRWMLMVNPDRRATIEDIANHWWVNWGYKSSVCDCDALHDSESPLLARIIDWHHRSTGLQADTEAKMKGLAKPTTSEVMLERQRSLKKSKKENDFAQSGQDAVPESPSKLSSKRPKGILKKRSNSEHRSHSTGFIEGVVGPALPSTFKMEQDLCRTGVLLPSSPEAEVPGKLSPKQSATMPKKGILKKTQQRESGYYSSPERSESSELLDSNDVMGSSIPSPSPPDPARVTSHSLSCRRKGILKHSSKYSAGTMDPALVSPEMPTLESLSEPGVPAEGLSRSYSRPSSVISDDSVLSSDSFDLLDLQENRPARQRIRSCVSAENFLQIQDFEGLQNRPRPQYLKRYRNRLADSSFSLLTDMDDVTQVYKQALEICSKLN
Procedure: as §2, §3, §4, §5, §6, §7

SMILES	half-life at 1 µM [1]	CDK4/D1 pIC50 (CDK4/D1)	CDK6/D1 pIC50 (CDK6/D1)	plasma half-life t1/2 [2]	% activity remaining (IKKb)	% activity remaining (BRSK2)	% activity remaining (EPH-B1)	% activity remaining (HIPK1)	% activity remaining (ERK1)	% activity remaining (DYRK1A)	% activity remaining (MLK3)	% activity remaining (PKA)	% activity remaining (TGFBR1)	% activity remaining (PDK1)	% activity remaining (TBK1)	% activity remaining (TLK1)	% activity remaining (p38g MAPK)	% activity remaining (NUAK1)
CN1CCN(c2ccc(Nc3ncc4cc(C#N)c(=O)n(C5CCCC5)c4n3)cc2)CC1 [Compound 3, Narazaciclib, reference compound]	6.9 min	8.4	8.0	90 min	–	–	–	–	–	–	–	–	–	–	–	–	–	–
Cc1cc(=O)n(C2CCCC2)c2nc(Nc3ccc(N4CC5CC(C4)N5C)cc3)ncc12 [Compound 9]	–	–	–	–	93%	90%	51%	88%	97%	78%	43%	84%	92%	90%	66%	59%	97%	5%
CN1C2CC1CN(c1ccc(Nc3ncc4ccn(CC5CCOCC5)c4n3)cc1)C2 [Compound 24]	–	–	–	–	103%	75%	87%	82%	98%	141%	91%	90%	75%	95%	41%	86%	92%	14%
